This note sets out measurements from BindingDB's records for doi:10.1016/j.bmcl.2010.09.009 (Merck Research Laboratories, 2010).

The nature of this test: Inhibition of PAR1-mediated aggregation of TRAP-stimulated human platelet.

Broadly, the IC50 is the concentration at which inhibition is half-maximal. A higher IC50 goes with weaker potency. In the case of `CCOC(=O)N[C@@H]1CC[C@@H]2[C@@H](C1)C[C@H]1C(=O)O[C@H](C)[C@H]1[C@H]2C=Cc1ccc(-c2ccccn2)cn1` [ethyl(1R,3aR,4aR,6R,8aR,9S,9aS)-9-((E)-2-(2,3'-bipyridin-6'-yl)vinyl)-1-methyl-3-oxododecahydronaphtho[2,3-c]furan-6-ylcarbamate], the IC50 came to 0.18 µM.
